Where “and” joins values, the source holds several entries; their conditions need not be identical. Equal entries are not always repeated. Where two headings read alike, the source gives them in different places. No end group written: not given here. Acr = acridine on the lysine ε-amine
Tests used:
Erythrocytes = experiment: RBC hemolysis assay; assay type: cell-based, mice
Description: Whole blood was obtained from male ICR mice by heart puncture with heparinized 22 G needles and collected in conical tubes containing 10 ml of 0.15 M PBS (pH 7.4) prewarmed to 37° C. Erythrocytes were immediately separated from plasma by centrifugation at 2000 rpm for 2 min, washed three times with 10 ml of PBS, and then diluted to 1.5×10^8 cells/ml. Peptides were prepared at 15 μM and serially diluted to 10-0.01 μM, after which 100 μl was pipetted in triplicate into a MultiScreenHTS BV 96 well plate. Erythrocytes (50 μl, 7.5×10^6 cells) were added to the peptides and incubated at 37° C. for 1 h followed by filtration on a Multiscreen vacuum manifold (Millipore Corporation, Billerica, Mass.). The filtrate was measured for Abs410nm on a Biotech plate reader (Biotech Instruments Incorporated., Winooski, Vt.) and compared to the 100% hemolysis caused by replacing PBS with water. Peptide DNA polyplexes (1.5 nmols and 7.5 μg pGL3) were also assayed for hemolysis as described above.

[1] = test system: HepG2, 3T3, and CHO cells; experiment: in vitro gene transfer (luciferase) in three cell lines; assay type: cell-based; conditions: all three cell lines; 0.5 nmol per μg of pGL3
Description: HepG2 cells (5×10^5) were plated on 6×35 mm wells and grown to approximately 50% confluency. Transfections were performed in MEM supplemented with 2% FBS, sodium pyruvate (1 mM), and penicillin and streptomycin (100 U and 100 μg/mL). Polyplexes were prepared at a DNA concentration of 30 μg/ml and a stoichiometry of 0.5 nmol peptide per μg of DNA in Hepes buffered mannitol (HBM). Polyplexes (10 μg of DNA in 0.3 ml of HBM) were added drop wise to wells in triplicate. After 24 hrs, the cells were washed twice with 2 ml of ice-cold phosphate-buffered saline (Ca^2+- and Mg^2+-free) and then treated with 0.5 ml of lysis buffer (25 mM Tris Chloride, pH 7.8, 1 mM EDTA, 8 mM magnesium chloride, and 1% Triton X-100) for 10 min at 4° C. Cell lysates were scraped, transferred to 1.5 mL microcentrifuge tubes, and centrifuged for 10 min at 13,000 g at 4° C. to pellet cell debris. Lysis buffer (300 μL), sodium-ATP (4.3 μL of a 165 mM solution at pH 7, 4° C.) were combined in a test tube, mixed briefly, and immediately placed in the luminometer. Luciferase relative light units were measured by a Lumat LB 9501 (Berthold Systems, Germany) with 10 s integration after automatic injection of 100 μL of 0.5 mM D-luciferin. […] Protein concentrations were measured by a BCA assay using bovine serum albumin as a standard. […]

[2] = QELS particle size and zeta potential of polyacridine-melittin polyplexes; assay type: physicochemical; conditions: mean particle size of peptide-DNA polyplex, 0.5 nmol of peptide per μg of DNA
Description: Particle size and zeta potential were determined by preparing 2 ml of polyplex in 5 mM Hepes pH 7.5 at a DNA concentration of 30 μg/ml with 15 nmols/ml of peptide (0.5 nmol of peptide per μg of DNA). Particle size was measured by quasi-elastic light scattering (QELS) at a scatter angle of 90° on a Brookhaven ZetaPlus particle sizer (Brookhaven Instruments Corporation, NY). The zeta potential was determined as the mean of ten measurements immediately following acquisition of the particle size.

DNA = DNA band shift and thiazole orange displacement assays of cysteine-flanked acridinylated peptides; assay type: binding
Description: CKacrKKacrC (SEQ ID NO: 103), CKacrRKacrC (SEQ ID NO: 104), CKacrLKacrC (SEQ ID NO: 105), and CKacrFKacrC (SEQ ID NO: 106) (where Kacr is a lysine modified with acridine at the ε-amine) (FIG. 33, Formula VII) were synthesized by SPPS and purified while monitoring the absorbance of acridine at 409 nm. Monomers were evaluated for DNA affinity by DNA band shift and thiazole orange displacement assays. DNA complexes with monomers were also evaluated for particle size and ζ-potential. […] Buffered incubations of monomer at pH 8.0 were used to encourage polymerization of peptides and poly-CKacrKKacrC (SEQ ID NO: 103) and poly-CKacrRKacrC (SEQ ID NO: 104) have been isolated.

[3] = target: human DC-SIGN (Dendritic Cell-Specific Intracellular adhesion molecule-3 Grabbing Non-integrin) receptor, stably transfected in CHO cells (human) (UniProt Q9NNX6); experiment: FACS of DC-SIGN CHO (+) and (-) cells after 24 hr at 37 C with Cy5-DNA glycopeptide polyplex
[4] = target: human DC-SIGN (Dendritic Cell-Specific Intracellular adhesion molecule-3 Grabbing Non-integrin) receptor, stably transfected in CHO cells (human) (UniProt Q9NNX6); experiment: cell-based or functional assay
[5] = target: human DC-SIGN (Dendritic Cell-Specific Intracellular adhesion molecule-3 Grabbing Non-integrin) receptor, stably transfected in CHO cells (human) (UniProt Q9NNX6); experiment: FACS of DC-SIGN CHO (+) and (-) cells after 24 hr with Cy5-DNA glycopeptide polyplex
[6] = test system: DC-SIGN (+) and (−) CHO cells; experiment: Cy5-DNA glycopeptide polyplex uptake by FACS; assay type: cell-based, human; conditions: 24 hr 37° C.
Description: pGL3 plasmid (5 μg) was labeled with Label IT according to the manufacturer's instructions to prepare Cy5-DNA. The Man 9 glycopeptide (0.5 nmol) was combined with 1 μg Cy5-DNA in 60 μl of water and incubated for 30 min to form a polyplex. DC-SIGN (+) and (−) CHO cells (1×10^6) (Granelli-Pipemo, A., Pritsker, A., Pack, M., Shimeliovich, I., Arrighi, J. F., Park, C. G., Trumpfheller, C., Piguet, V., Moran, T. M., and Steinman, R. M. (2005) Dendritic Cell Specific Intercellular Adhesion Molecule 3-Grabbing Nonintegrin/CD209 Is Abundant on Macrophages in the Normal Human Lymph Node and Is Not Required for Dendritic Cell Stimulation of the Mixed Leukocyte Reaction. J Immunology 7, 4260-4273) were each plated in triplicate in 35 mm wells and grown in DMEM supplemented with 7% FBS and 1% nonessential amino acids for 24 hrs. CHO (+) and (−) cells were transfected for 24 hrs with 1 μg of Cy5-DNA polyplex. The CHO cells were lifted by treatment with 5 ml of 1 mM EDTA in PBS and concentrated by centrifugation by 2,000×g, before diluting to a final volume of 1 ml in PBS. The transfected CHO (+) and (−) cells were analyzed by FACS on a Becton Dickson LSRII with excitation 488 nm and emission 575 nm, and compared to untransfected CHO cells.

pGL3 [7] = experiment: thiazole orange displacement assay of Man 9 glycopeptide; assay type: binding; conditions: pGL3 1 μg, 40 nM thiazole orange
Description: A control sample of pGL3 (1 μg) was combined with 40 nM thiazole orange in a total volume of 500 μl of 5 mM Hepes buffer pH 7.4. The Man 9 glycopeptide (0.2, 0.3, 0.4, 1 and 2 nmol) or Cys-(Acr-Lys)4 peptide (SEQ ID NO: 23) was added to pGL3 (1 μg) samples containing thiazole orange, and incubated for 30 min, followed by measuring the fluorescence intensity at excitation 500 nm and emission 530 nm (Wadhwa, M. S., Collard, W. T., Adami, R. C., McKenzie, D. L., and Rice, K. G. (1997) Peptide-mediated gene delivery: influence of peptide structure on gene expression. Bioconjugate Chemistry 8, 81-8). The percent fluorescence intensity relative to control was plotted versus the stoichiometry of glycopeptide or peptide added to DNA to determine the equivalence point.

pGL3 [8] = experiment: Man 9 glycopeptide DNA band shift assay; assay type: binding; conditions: agarose gel
Description: pGL3 (1 μg) was combined with 0.05, 0.2, 0.5, and 1 nmol of Man 9 glycopeptide. Each sample was incubated for 30 min before loading onto an agarose gel, that was electrophoresed at 80 V for 60 min (Adami, R. C., Collard, W. T., Gupta, S. A., Kwok, K. Y., Bonadio, J., and Rice, K. G. (1998) Stability of Peptide-Condensed Plasmid DNA Formulations. Journal of Pharmaceutical Sciences 87, 678-683). The gel was stained with 0.1 mg per ml of ethidium bromide at 4° C. for 24 hrs, then photographed while illuminating on a transilluminator.

Chain of UniProt Q9NNX6 (Q9NNX6 whole entry): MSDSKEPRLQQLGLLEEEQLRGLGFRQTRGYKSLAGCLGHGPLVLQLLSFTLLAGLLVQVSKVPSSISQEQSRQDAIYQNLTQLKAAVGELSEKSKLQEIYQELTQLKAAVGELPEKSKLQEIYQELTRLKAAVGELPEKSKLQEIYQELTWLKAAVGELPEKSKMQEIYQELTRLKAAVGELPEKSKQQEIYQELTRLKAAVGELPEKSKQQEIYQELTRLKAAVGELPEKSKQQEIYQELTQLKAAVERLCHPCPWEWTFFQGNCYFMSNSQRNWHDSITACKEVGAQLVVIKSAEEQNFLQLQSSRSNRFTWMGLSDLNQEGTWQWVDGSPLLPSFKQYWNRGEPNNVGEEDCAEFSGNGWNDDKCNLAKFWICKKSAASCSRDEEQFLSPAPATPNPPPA

Compound: CC[C@H](C)[C@H](NC(=O)CNC(=O)[C@H](CCCCN)NC(=O)[C@H](CCCCN)NC(=O)[C@H](Cc1c[nH]c2ccccc12)NC(=O)[C@@H](N)CSSC[C@H](NC(=O)[C@H](CCCNC(=N)N)NC(=O)[C@H](CCCCNC(C)=O)NC(=O)[C@H](CCCNC(=N)N)NC(=O)[C@H](CCCCNC(C)=O)NC(=O)[C@H](CCCNC(=N)N)NC(=O)[C@H](CCCCNC(C)=O)NC(=O)[C@H](CCCNC(=N)N)NC(=O)[C@H](CCCCNC(C)=O)NC(=O)[C@@H](N)Cc1c[nH]c2ccccc12)C(=O)O)C(=O)NCC(=O)N[C@@H](C)C(=O)N[C@H](C(=O)N[C@@H](CC(C)C)C(=O)N[C@@H](CCCCN)C(=O)N[C@H](C(=O)N[C@@H](CC(C)C)C(=O)N[C@H](C(=O)N[C@H](C(=O)NCC(=O)N[C@@H](CC(C)C)C(=O)N1CCC[C@H]1C(=O)N[C@@H](C)C(=O)N[C@@H](CC(C)C)C(=O)N[C@H](C(=O)N[C@@H](CO)C(=O)N[C@@H](CC(C)C)C(=O)N[C@H](C(=O)N[C@@H](CCCCN)C(=O)N[C@@H](CCCNC(=N)N)C(=O)N[C@@H](CCCCN)C(=O)N[C@@H](CCCNC(=N)N)C(=O)N[C@@H](CCC(N)=O)C(=O)N[C@@H](CCC(N)=O)C(=O)O)[C@@H](C)CC)[C@@H](C)CC)[C@@H](C)O)[C@@H](C)O)C(C)C)C(C)C [poly(Lys(Ac)-Arg)4-SS-melittin]
- EC50 (Erythrocytes; RBC hemolysis at pH 5.0, second value of the cell (pH 7.4:5.0), read-out: HL50 (μM) pH 5.0): 7.7 µM
- EC50 (Erythrocytes; RBC hemolysis at pH 7.4, first value of the cell (pH 7.4:5.0), read-out: HL50 (μM) pH 7.4): 5.6 µM
- gene transfer, fold less active than poly(Acr-Arg)4-SS-melittin [1]: 100-1000 fold
- Particle Size (nm) [2]: 177 nm

Compound: CKacrKKacrC: cysteine-flanked acridinylated peptide, Kacr = lysine modified with acridine at the ε-amine; SEQ ID NO: 103 (CK(Acr)KK(Acr)C; cysteine pairing not given here)
- affinity for DNA (DNA): higher affinity for DNA

Compound: CKacrRKacrC: cysteine-flanked acridinylated peptide, SEQ ID NO: 104 (CK(Acr)RK(Acr)C; cysteine pairing not given here)
- affinity for DNA (DNA): higher affinity for DNA

Compound: Man 9 glycopeptide (Man9GlcNAc2-Asn-Tyr-propionate maleimide conjugated to Cys-(Acr-Lys)4)
- fold fluorescence intensity (cell uptake), CHO (+) over CHO (-) cells [3]: 10 to 50 fold
- in vitro gene transfer (luciferase expression) in CHO (+) versus CHO (-) cells [4]: 100 fold
- fold fluorescence intensity, CHO (+) over CHO (-) cells [5]: 10 fold

Compound: Man 9 glycopeptide: high mannose N-glycan Man 9 Mal (Tyr, propionate maleimide) conjugated to Cys-(Acr-Lys)4
- cell uptake (fluorescence intensity), CHO (+) over CHO (−) cells [6]: 10-50 fold and ~10 fold
- thiazole orange displacement, asymptote / equivalence point for polyplex formation (pGL3 [7]): 0.4 nmol per μg of DNA
- stoichiometry at which the band shift was complete (pGL3 [8]): ≥ 0.4 nmol of glycopeptide per μg of DNA

Compound: poly-CKacrKKacrC: disulfide polymer of CKacrKKacrC formed by buffered incubation at pH 8.0 (CK(Acr)KK(Acr)C; also: disulfide polymer formed at pH 8.0)
- affinity for DNA (DNA): greater affinity of the polymer for DNA than the monomer

— patent US20120035320A1, “POLYACRIDINE NUCLEIC ACID DELIVERY PEPTIDE COMPLEXES” (University of Iowa Research Foundation, priority 2010, published 2012)
